Measured values as given in patent US5238832A, “Aryl aliphatic acids” (Board of Governors of Wayne State University, priority 1992, dated 1993).

What follows are compounds tested against T1, 12-lipoxygenase (Sus scrofa, UniProt P16469) (assay: Inhibition of 12-lipoxygenase activity by aryl aliphatic acids (porcine leukocyte cytosol, conversion of [1-14C] arachidonic acid to 12-HETE)). Details: porcine leukocyte cytosol 0.075 mg/ml protein; 0.1 M HEPES, pH 8.0; 5 min preincubation, 15 min at 37° C.; arachidonic acid given as 5 mM.
T1 construct: porcine leukocyte cytosol containing 12-lipoxygenase; from tissue; host or cells: porcine leukocyte cytosol
T1 sequence (P16469 1-663): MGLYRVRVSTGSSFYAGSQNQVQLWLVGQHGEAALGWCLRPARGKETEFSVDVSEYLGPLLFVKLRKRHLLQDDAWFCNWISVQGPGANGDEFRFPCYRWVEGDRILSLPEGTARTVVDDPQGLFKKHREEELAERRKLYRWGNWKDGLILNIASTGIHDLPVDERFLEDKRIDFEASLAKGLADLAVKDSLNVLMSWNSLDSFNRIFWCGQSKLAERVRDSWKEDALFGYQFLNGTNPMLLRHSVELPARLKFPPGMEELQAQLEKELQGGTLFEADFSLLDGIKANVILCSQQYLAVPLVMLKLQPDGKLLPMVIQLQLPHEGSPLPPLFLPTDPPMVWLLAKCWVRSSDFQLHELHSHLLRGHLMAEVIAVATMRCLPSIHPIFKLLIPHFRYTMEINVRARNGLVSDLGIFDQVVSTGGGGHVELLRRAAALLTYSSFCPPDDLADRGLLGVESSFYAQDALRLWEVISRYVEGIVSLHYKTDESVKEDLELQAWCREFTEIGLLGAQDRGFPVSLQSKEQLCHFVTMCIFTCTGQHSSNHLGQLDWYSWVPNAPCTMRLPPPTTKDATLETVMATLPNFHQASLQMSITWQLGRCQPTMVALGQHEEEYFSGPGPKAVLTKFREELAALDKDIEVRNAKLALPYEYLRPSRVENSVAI
Type: biochemical
Method: The standard assay procedure is as follows: […] [1^-14 C] Arachidonic acid was added (final concentration of […]) and the reactions were incubated for 15 minutes at 37° C. and terminated by the addition of HCl. […] Samples were extracted with water-saturated ethyl acetate and the extracts were spotted onto TLC plates. The plates were developed with dichloromethane/ethyl acetate/acetic acid in a ratio of 70:30:1. […] The percentage conversion to 12-HETE was calculated from the percentage of the total ^14 C on the TLC plate that coelutes with a standard of 12-HETE.

Row | IC50 [µM] | Compound
1 | 2 | CCCCCCC#CCOCc1ccc(CCC(=O)O)cc1 [Compound 25, 3-[4-(2-Nonynyloxymethyl)phenyl]propanoic Acid]
2 | 0.035 | CCCCCCCCCCC#CCOCc1ccc(CCC(=O)O)cc1 [Compound 24, 3-[4-(2-Tridecynyloxymethyl)phenyl]propanoic Acid]
3 | 0.1 | CCCCCCCCC#CCOCc1ccc(CCC(=O)O)cc1 [Compound 26, 3-[4-(2-Undecynyloxymethyl)phenyl]propanoic Acid]
4 | 0.32 | CCCCCCCCCCCCC#CCOCc1ccc(CCC(=O)O)cc1 [Compound 27, 3-[4-(2-Pentadecynyloxymethyl)phenyl]propanoic Acid]

Second part, the compound before the results:

Row | Compound | IC50 [µM]
5 | CCCCCCCCCC/C=C/COCc1ccc(CCC(=O)O)cc1 [Compound 32, trans-3-[4-(2-Tridecenyloxymethyl)phenyl]propanoic Acid] | 0.4
6 | CCCCCCCCCC/C=C\COCc1ccc(CCC(=O)O)cc1 [Compound 31, cis-3-[4-(2-Tridecenyloxymethyl)-phenyl]propanoic Acid] | 1
7 | CCCCCCCCCCC=C=CCOCc1ccc(CCC(=O)O)cc1 [Compound 34, (S)-(+)-3-[4-(2,3-Tetradecadienyloxymethyl)phenyl]propanoic Acid] | 0.28
8 | CCCCCCCCCCC=C=CCOCc1ccc(CCC(=O)O)cc1 [Compound 35, (R)-3-[4-(2,3-Tetradecadienyloxymethyl)] | 0.45
9 | CCCCCCCCCCc1ccc(COCc2ccc(CCC(=O)O)cc2)cc1 [Compound 30, 3-[4-[4-(Decylphenylmethyl)oxymethyl]phenyl]propanoic Acid] | 5
